We go through one compound from patent US11242537B2, “Method for improving sensitivity of plant to gibberellin inhibitor and use thereof” (CHINA AGRICULTURAL UNIVERSITY, priority 2017, dated 2022).

The structures appear in SMILES notation.

In this assay the test system is transgenic zmcps-ko line with the HRP, line No. 443. Description: Sensitivity of transgenic zmcps-ko line with the HRP to DPC, line No. 443. It counts as in vivo, maize. From the text: The GV3101-pSuper1300-HRP of Example 1 was transformed into the ZmCPSKO maize embryos of step 1.1 by using the Agrobacterium to infect the maize immature embryos, and positive transgenic maize with the HRP was obtained by screening, and the transgenic maize with the HRP contained the target gene HRP. The GV3101-pSuper1300-ZmCPS and GV3101-pSuper1300 were used as controls, and the ZmCPS control maize and empty vector control maize were obtained, respectively.
The WT and transgenic plants were sprayed with DPC during jointing stage to test their DPC sensitivity: the whole plant was sprayed with 500 ppm […] DPC when the maize was grown to 7 leaf expansion phase and 12 leaf expansion phase. Plant height and ear height were measured 2 weeks after treatment and after tasseling.

[1] abbreviates: line No. 443, 500 ppm (5 mM) DPC spray.

As for `C[N+]1(C)CCCCC1.[Cl-]` [DPC, 1,1-dimethylpiperidinium chloride], the “Sensitivity of the plant to DPC (in words)” value (complementary plant, line No. 443 (FIG. 5), 500 ppm (5 mM) DPC spray) is reported as “sensitive”. Moreover, under setting [1], the Ear height is listed as 80.0 and the “Plant height at tasseling stage” value was 187.9. Further, the “Plant height at 2 weeks after treatment” value (line No. 443, whole plant sprayed with 500 ppm (5 mM) DPC at 7 and 12 leaf expansion phase) worked out at 128.9.
